# Test results from US11530210B2, “Substituted heteroaromatic pyrazolo-pyridines and their use as GLUN2B receptor modulators” (JANSSEN PHARMACEUTICA NV, priority 2019, dated 2022).
# Counter-ions that a name gives are not always drawn.
# Target: T1, human GluN1/GluN2B NMDA receptors (Homo sapiens, UniProt Q13224)
# T1 construct: expressed in transfected cells
# Assay: Calcium flux (FLIPR) assay on cloned human NR1/GluN2B ion channels expressed in mammalian cells (standard and HTS variants)
# Type: cell-based
# Settings: cells expressing human GluN1/GluN2B, glutamate and glycine co-agonists
# Outline: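 Tet-On-induced stable cell line loaded with Calcium 5 dye; compounds applied 5 min (agonist check), then glutamate at ~EC40 plus 10 μM glycine for 5 min. Buffer pH 7.4 with 0.5 mM MgCl2 in dye loading (standard) or 1.5 mM (HTS). FLIPR fluorescence normalized to control wells; (+)MK-801 as antagonist control.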
# T1 sequence (Q13224 27-1484, other chains not shown): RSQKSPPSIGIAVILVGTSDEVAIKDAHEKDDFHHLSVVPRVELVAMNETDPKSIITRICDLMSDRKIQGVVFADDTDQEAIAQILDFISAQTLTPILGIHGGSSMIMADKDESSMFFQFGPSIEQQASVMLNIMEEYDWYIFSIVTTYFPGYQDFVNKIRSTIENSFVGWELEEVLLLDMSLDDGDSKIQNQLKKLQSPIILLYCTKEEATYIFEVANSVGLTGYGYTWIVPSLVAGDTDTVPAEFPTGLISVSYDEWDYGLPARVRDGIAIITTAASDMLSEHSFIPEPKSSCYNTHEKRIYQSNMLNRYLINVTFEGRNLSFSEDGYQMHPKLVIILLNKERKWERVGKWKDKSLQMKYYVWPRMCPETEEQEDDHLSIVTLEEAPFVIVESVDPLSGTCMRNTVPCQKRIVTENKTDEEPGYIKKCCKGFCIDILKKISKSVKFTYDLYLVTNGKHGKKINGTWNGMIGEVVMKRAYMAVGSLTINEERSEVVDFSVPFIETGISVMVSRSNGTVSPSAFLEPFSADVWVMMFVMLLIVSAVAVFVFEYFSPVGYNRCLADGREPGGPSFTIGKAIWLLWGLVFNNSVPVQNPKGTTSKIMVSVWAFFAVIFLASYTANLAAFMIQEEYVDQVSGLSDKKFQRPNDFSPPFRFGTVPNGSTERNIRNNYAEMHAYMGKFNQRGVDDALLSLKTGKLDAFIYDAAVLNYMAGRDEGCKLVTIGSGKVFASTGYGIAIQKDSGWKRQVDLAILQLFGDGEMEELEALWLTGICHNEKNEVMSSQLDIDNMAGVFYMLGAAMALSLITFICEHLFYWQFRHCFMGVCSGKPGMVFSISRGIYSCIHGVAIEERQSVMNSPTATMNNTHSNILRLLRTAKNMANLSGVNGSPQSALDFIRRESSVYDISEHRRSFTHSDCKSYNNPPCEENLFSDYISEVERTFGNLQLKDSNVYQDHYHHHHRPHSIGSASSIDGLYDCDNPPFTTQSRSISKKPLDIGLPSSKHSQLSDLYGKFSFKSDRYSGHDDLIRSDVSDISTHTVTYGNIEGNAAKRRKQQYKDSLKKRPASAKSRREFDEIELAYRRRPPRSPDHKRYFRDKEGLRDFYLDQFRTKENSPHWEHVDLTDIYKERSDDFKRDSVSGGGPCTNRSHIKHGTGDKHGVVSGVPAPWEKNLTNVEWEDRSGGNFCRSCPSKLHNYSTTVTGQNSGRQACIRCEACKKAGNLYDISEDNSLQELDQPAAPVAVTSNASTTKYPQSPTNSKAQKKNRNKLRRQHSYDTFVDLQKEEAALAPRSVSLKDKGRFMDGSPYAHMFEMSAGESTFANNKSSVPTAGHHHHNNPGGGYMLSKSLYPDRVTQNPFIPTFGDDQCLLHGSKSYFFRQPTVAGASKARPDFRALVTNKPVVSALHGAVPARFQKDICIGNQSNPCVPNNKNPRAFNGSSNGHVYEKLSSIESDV
row,SMILES,IC50 [nM]
1,"Cc1noc(Cn2ncc3ncc(-c4cccc(C(F)(F)F)c4)cc32)n1 [Example 84, 3-Methyl-5-[[6-[3-(trifluoromethyl)phenyl]pyrazolo[4,3-b]pyridin-1-yl]methyl]-1,2,4-oxadiazole]",293
2,"FC(F)Oc1cc(-c2cnc3cnn(Cc4cn[nH]c4)c3c2)ccc1Cl [Example 41, 6-[4-Chloro-3-(difluoromethoxy)phenyl]-1-(1H-pyrazol-4-ylmethyl)pyrazolo[4,3-b]pyridine]",423
3,"FC(F)(F)c1cccc(-c2cnc3cnn(Cc4ncon4)c3c2)c1 [Example 20, 3-[[6-[3-(Trifluoromethyl)phenyl]pyrazolo[4,3-b]pyridin-1-yl]methyl]-1,2,4-oxadiazole]",751
4,"Fc1ccc(Cn2ncc3ncc(-c4cccc(C(F)(F)F)c4)cc32)cn1 [Example 169, 1-[(6-Fluoro-3-pyridyl)methyl]-6-[3-(trifluoromethyl)phenyl]pyrazolo[4,3-b]pyridine]",234
5,"FC(F)(F)c1cncc(Cn2ncc3ncc(-c4cccc(C(F)(F)F)c4)cc32)c1 [Example 175, 6-[3-(Trifluoromethyl)phenyl]-1-[[5-(trifluoromethyl)-3-pyridyl]methyl]pyrazolo[4,3-b]pyridine]",2300
6,"Cc1cccc(-c2cnc3cnn(Cc4ccc(F)nc4)c3c2)c1 [Example 145, 1-[(6-Fluoro-3-pyridyl)methyl]-6-(m-tolyl)pyrazolo[4,3-b]pyridine]",36
7,"Fc1ccc(Cn2ncc3ncc(-c4ccc(F)c(C(F)F)c4)cc32)s1 [Example 33, 6-(3-(Difluoromethyl)-4-fluorophenyl)-1-((5-fluorothiophen-2-yl)methyl)-1H-pyrazolo[4,3-b]pyridine]",1030
8,"Cc1nn(Cc2cccnc2)c2cc(-c3ccc(F)c(C(F)F)c3)cnc12 [Example 199, 6-[3-(Difluoromethyl)-4-fluoro-phenyl]-3-methyl-1-(3-pyridylmethyl)pyrazolo[4,3-b]pyridine]",34
9,"FC(F)(F)c1cccc(-c2cnc3cnn(Cc4ccc(C(F)(F)F)nc4)c3c2)c1 [Example 174, 6-[3-(Trifluoromethyl)phenyl]-1-[[6-(trifluoromethyl)-3-pyridyl]methyl]pyrazolo[4,3-b]pyridine]",11900
10,"Fc1ccc(-c2cnc3cnn(Cc4cncc(OC(F)F)c4)c3c2)cc1 [Example 151, 1-[[5-(Difluoromethoxy)-3-pyridyl]methyl]-6-(4-fluorophenyl)pyrazolo[4,3-b]pyridine]",1150
11,"Clc1ccsc1-c1cnc2cnn(Cc3cccnc3)c2c1 [Example 141, 6-(3-Chloro-2-thienyl)-1-(3-pyridylmethyl)pyrazolo[4,3-b]pyridine]",61
12,"FC(F)(F)c1cccc(-c2cnc3cnn(Cc4ccccc4)c3c2)c1 [Example 21, 1-Benzyl-6-[3-(trifluoromethyl)phenyl]pyrazolo[4,3-b]pyridine hydrochloride salt]",3280
13,"COc1ccc(Cn2ncc3ncc(-c4ccc(F)c(C(F)F)c4)cc32)cn1 [Example 204, 6-[3-(Difluoromethyl)-4-fluoro-phenyl]-1-[(6-methoxy-3-pyridyl)methyl]pyrazolo[4,3-b]pyridine]",1620
14,"Cc1cncc(Cn2ncc3ncc(-c4ccc(F)c(OC(F)F)c4)cc32)c1 [Example 224, 6-[3-(Difluoromethoxy)-4-fluoro-phenyl]-1-[(5-methyl-3-pyridyl)methyl]pyrazolo[4,3-b]pyridine]",56
15,"Cc1csc(Cn2ncc3ncc(-c4ccc(F)c(C(F)F)c4)cc32)n1 [Example 66, 2-[[6-[3-(Difluoromethyl)-4-fluoro-phenyl]pyrazolo[4,3-b]pyridin-1-yl]methyl]-4-methyl-thiazole]",410
16,"Fc1ccc(-c2cnc3cnn(Cc4cncc(OC(F)F)c4)c3c2)cc1C(F)F [Example 210, 1-[[5-(Difluoromethoxy)-3-pyridyl]methyl]-6-[3-(difluoromethyl)-4-fluoro-phenyl]pyrazolo[4,3-b]pyridine]",110
17,"Cc1cncc(Cn2ncc3ncc(-c4ccc(Cl)c(OC(F)F)c4)cc32)c1 [Example 239, 6-[4-Chloro-3-(difluoromethoxy)phenyl]-1-[(5-methyl-3-pyridyl)methyl]pyrazolo[4,3-b]pyridine]",120
18,"CC(F)(F)c1cccc(-c2cnc3cnn(Cc4cncnc4)c3c2)c1 [Example 274, 6-[3-(1,1-Difluoroethyl)phenyl]-1-(pyrimidin-5-ylmethyl)pyrazolo[4,3-b]pyridine]",51
19,"Cc1nnc(Cn2ncc3ncc(-c4ccc(Cl)s4)cc32)o1 [Example 77, 2-[[6-(5-Chloro-2-thienyl)pyrazolo[4,3-b]pyridin-1-yl]methyl]-5-methyl-1,3,4-oxadiazole]",89
20,"Fc1cc(-c2cnc3cnn(Cc4ccccn4)c3c2)cc(F)c1F [Example 250, 1-(2-Pyridylmethyl)-6-(3,4,5-trifluorophenyl)pyrazolo[4,3-b]pyridine]",2630
21,"FC(F)(F)c1cccc(-c2cnc3cnn(Cc4ccncn4)c3c2)c1 [Example 6, 1-(Pyrimidin-4-ylmethyl)-6-[3-(trifluoromethyl)phenyl]pyrazolo[4,3-b]pyridine hydrochloride salt]",819
22,"N#Cc1cncc(Cn2ncc3ncc(-c4ccc(F)c(C(F)F)c4)cc32)c1 [Example 203, 5-[[6-[3-(Difluoromethyl)-4-fluoro-phenyl]pyrazolo[4,3-b]pyridin-1-yl]methyl]pyridine-3-carbonitrile]",31
23,"Fc1cc(F)cc(Cn2ncc3ncc(-c4ccc(F)c(C(F)F)c4)cc32)c1 [Example 27, 6-[3-(Difluoromethyl)-4-fluoro-phenyl]-1-[(3,5-difluorophenyl)methyl]pyrazolo[4,3-b]pyridine]",394
24,"Cc1noc(Cn2ncc3ncc(-c4cc(F)cc(C(F)(F)F)c4)cc32)n1 [Example 108, 5-[[6-[3-Fluoro-5-(trifluoromethyl)phenyl]pyrazolo[4,3-b]pyridin-1-yl]methyl]-3-methyl-1,2,4-oxadiazole]",815
25,"Cc1cc(Cn2ncc3ncc(-c4cccc(C(F)(F)F)c4)cc32)n(C)n1 [Example 37, 1-[(2,5-Dimethylpyrazol-3-yl)methyl]-6-[3-(trifluoromethyl)phenyl]pyrazolo[4,3-b]pyridine]",3950
26,"FC(F)c1cccc(-c2cnc3cnn(Cc4ccccn4)c3c2)c1 [Example 156, 6-[3-(Difluoromethyl)phenyl]-1-(2-pyridylmethyl)pyrazolo[4,3-b]pyridine]",740

# Other lines, results leading:
row,IC50 [nM],SMILES
1,183,"Cc1noc(Cn2ncc3ncc(-c4cccc(C(F)(F)F)c4F)cc32)n1 [Example 111, 5-[[6-[2-Fluoro-3-(trifluoromethyl)phenyl]pyrazolo[4,3-b]pyridin-1-yl]methyl]-3-methyl-1,2,4-oxadiazole]"
2,82,"Cc1noc(C)c1Cn1ncc2ncc(-c3ccc(F)c(C(F)F)c3)cc21 [Example 57, 4-[[6-[3-(Difluoromethyl)-4-fluoro-phenyl]pyrazolo[4,3-b]pyridin-1-yl]methyl]-3,5-dimethyl-isoxazole]"
3,139,"Cc1cc(Cn2ncc3ncc(-c4ccc(F)cc4)cc32)no1 [Example 43, 3-[[6-(4-Fluorophenyl)pyrazolo[4,3-b]pyridin-1-yl]methyl]-5-methyl-isoxazole]"
4,90,"Cc1nnc(Cn2ncc3ncc(-c4ccc(F)c(Cl)c4)cc32)o1 [Example 92, 2-[[6-(3-Chloro-4-fluoro-phenyl)pyrazolo[4,3-b]pyridin-1-yl]methyl]-5-methyl-1,3,4-oxadiazole]"
5,153,"Cc1nnc(Cn2ncc3ncc(-c4ccc(C(F)F)s4)cc32)o1 [Example 79, 2-[[6-[5-(Difluoromethyl)-2-thienyl]pyrazolo[4,3-b]pyridin-1-yl]methyl]-5-methyl-1,3,4-oxadiazole]"
6,289,"Cc1noc(Cn2ncc3ncc(-c4ccc(F)c(OC(F)F)c4)cc32)n1 [Example 112, 5-[[6-[3-(Difluoromethoxy)-4-fluoro-phenyl]pyrazolo[4,3-b]pyridin-1-yl]methyl]-3-methyl-1,2,4-oxadiazole]"
7,17,"Cc1nnc(Cn2ncc3ncc(-c4ccc(F)c(C)c4F)cc32)s1 [Example 136, 2-[[6-(2,4-Difluoro-3-methyl-phenyl)pyrazolo[4,3-b]pyridin-1-yl]methyl]-5-methyl-1,3,4-thiadiazole]"
8,62,"Cc1c(F)ccc(-c2cnc3cnn(Cc4ccc(F)nc4)c3c2)c1F [Example 248, 6-(2,4-Difluoro-3-methyl-phenyl)-1-[(6-fluoro-3-pyridyl)methyl]pyrazolo[4,3-b]pyridine]"
9,139,"Cc1nnc(Cn2ncc3ncc(-c4ccc(F)c(C(F)F)c4)cc32)n1C [Example 75, 6-[3-(Difluoromethyl)-4-fluoro-phenyl]-1-[(4,5-dimethyl-1,2,4-triazol-3-yl)methyl]pyrazolo[4,3-b]pyridine]"
10,720,"Fc1cncc(Cn2ncc3ncc(-c4ccccc4F)cc32)c1 [Example 153, 6-(2-Fluorophenyl)-1-[(5-fluoro-3-pyridyl)methyl]pyrazolo[4,3-b]pyridine]"
11,277,"COc1cncc(Cn2ncc3ncc(-c4ccc(F)c(F)c4)cc32)c1 [Example 193, 6-(3,4-Difluorophenyl)-1-[(5-methoxy-3-pyridyl)methyl]pyrazolo[4,3-b]pyridine]"
12,78,"Cc1cnc(Cn2ncc3ncc(-c4ccc(F)c(C)c4F)cc32)o1 [Example 9, 2-[[6-(2,4-Difluoro-3-methyl-phenyl)pyrazolo[4,3-b]pyridin-1-yl]methyl]-5-methyl-oxazole]"
13,23,"Cc1cc(-c2cnc3cnn(Cc4cccnc4)c3c2)ccc1F [Example 177, 6-(4-Fluoro-3-methyl-phenyl)-1-(3-pyridylmethyl)pyrazolo[4,3-b]pyridine]"
14,128,"Cc1ccncc1Cn1ncc2ncc(-c3ccc(F)c(C)c3F)cc21 [Example 247, 6-(2,4-Difluoro-3-methyl-phenyl)-1-[(4-methyl-3-pyridyl)methyl]pyrazolo[4,3-b]pyridine trifluoroacetate salt]"
